Source: US7232809B2, “Mitochondrially targeted antioxidants” (Antipodean Pharmaceuticals, Inc., priority 1997, dated 2007)

Legend:
[1] = Octan-1-ol/PBS partition coefficient; format: physicochemical; conditions: 200 μM, room temperature, 1 h, means±SEM of three
Experimental: (§1) The IC50 values for inhibition of lipid peroxidation were determined in rat brain homogenates, and are means±SEM or range of determinations on 2–3 brain preparations. Octan-1-ol/PBS partition coefficients are means±SEM for three independent determinations. N.D. not determined. Partition coefficients were determined by mixing 200 μM of the compound in 2 ml water-saturated octanol-1-ol with 2 ml octanol-saturated-PBS at room temperature for 1 h, then the two layers were separated by brief centrifugation and their concentrations determined spectrophotometrically from standard curves prepared in PBS or octanol. To measure antioxidant efficacy four rat brains were homogenised in 15 ml 40 mM potassium phosphate (pH 7.4), 140 mM NaCl at 4° C., particulate matter was pelleted (1,000×g at 4° C. for 15 min) and washed once and the combined supernatants stored frozen. Aliquots were rapidly thawed and 5 mg protein suspended in 800 μl PBS containing antioxidant or ethanol carrier and incubated at 37° C. for 30 min. Thiobarbituric acid reactive species (TBARS) were quantitated at 532 nm by adding 200 μl conc. HClO4 and 200 μl 1% thiobarbituric acid to the incubation, heating at 100° C. for 15 min and then cooling and clarification by centrifugation (10,000×g for 2 min).

rat liver mitochondria [2] = assay: Protection of mitochondria against oxidative damage (TBARS, protein carbonyls); format: biochemical
Experimental: Mitochondria were exposed to oxidative stress by incubation with iron/ascorbate and the effect of compound 1 on oxidative damage assessed by measuring TBARS (filled bars) and protein carbonyls (open bars). Rat liver mitochondria (10 mg protein) were incubated at 25° C. in a shaking water bath in 2 ml medium containing 100 mM KCl, 10 mM Tris, pH 7.7, supplemented with rotenone (1.33 μg/ml), 10 mM succinate, 500 μM ascorbate and other additions. After preincubation for 5 min, 100 μM FeSO4 was added and 45–55 min later duplicate samples were removed and assayed for TBARS or protein carbonyls.
Energised rat liver mitochondria were exposed to tert-butylhydroperoxide and the effect of compound 1 (filled bars), α-tocopherol (open bars), compound 1+333 nM FCCP (stippled bars) or the simple lipophilic cation bromobutyl triphenylphosphonium (cross hatched bars) on TBARS formation determined.

rat liver mitochondria [3] = assay: Effect of compound 1 on membrane potential and respiration rate of isolated mitochondria; conditions: at the concentrations that afford protection
Experimental: TPMP at 25° C. for 3 min. After the incubation mitochondria were pelleted by centrifugation and the [^3H] TPMP in the supernatant and pellet quantitated by scintilation counting and the membrane potential calculated assuming a volume of 0.5 μl/mg proteins and that 60% of intramitochondrial TPMP is membrane bound.

rat brain homogenates = assay: Inhibition of lipid peroxidation in rat brain homogenates (TBARS assay); format: biochemical; conditions: TBARS, read-out: concentration that inhibited oxidative stress by 50%
Experimental: The rat brain homogenates were incubated with or without various concentrations of the test compounds (compound 1; native Vitamin E (α-tocopherol), bromobutyl triphenylphosphonium bromide, Trolox (a water soluble form of Vitamin E) and compound 2, ie2-(2-bromoethyl)-3,4-dihydro-2,5,7,8-tetramethyl-2H-1-benzopyran-6-ol, the precursor of compound 1 (“Brom Vit E”)) and the oxidative damage occurring over the incubation was quantitated using the TBARS assay (Stocks et al., 1974, Clin Sci Mol Med 47,215–222). From this the concentration of compound required to inhibit oxidative damage by 50% was determined. In this system 210 nM compound 1 inhibited oxidative stress by 50% while the corresponding value for native Vitamin E was 36 nM. The value for bromobutyltriphenylphosphonium bromide, which contains the triphenylphosphonium moiety but not the antioxidant Vitamin E moiety was 47 μM. […] Further details of the experimental procedures and results are set out below.
as §1

rat liver mitochondria [4] = assay: Uptake of [3H] compound 1 by energised rat liver mitochondria
143B cells [5] = assay: Uptake of compound 1 by intact cells; format: cell-based, human
Experimental: The mitochondrial specific accumulation of compound 1 also occurs in intact cells. This was measured as described by Burns and Murphy, 1997 and the accumulation was prevented by dissipating both the mitochondrial and plasma membrane potentials. […] Therefore the accumulation of compound 1 into cells is driven by the mitochondrial membrane potential.
(§2) The next step was to determine whether compound 1 was accumulated by intact cells. […] A proportion of this uptake of compound 1 into cells was inhibited by blocking the plasma and mitochondrial membrane potentials (FIG. 9). This energisation-sensitive uptake corresponds to an intra mitochondrial concentration of compound 1 of about 2–4 mM, which is sufficient to protect mitochondria from oxidative damage.
Here 10^6 143B cells (closed symbols) or ρ° cells (open symbols) were incubated with 1 μM [3H] compound 1 and the compound 1 accumulation ratio determined. Human osteosarcoma 143B cells and a derived ρ° cell line lacking mitochondrial DNA were cultured in DMEM/10% FCS (foetal calf serum) supplemented with uridine and pyruvate under an atmosphere of 5% CO2/95% air at 37° C., grown to confluence and harvested for experiments by treatment with trypsin. To measure [^3H] compound 1 accumulation cells (10^6) were incubated in 1 ml HEPES-buffered DMEM. At the end of the incubation, cells were pelleted by centrifugation, the cell pellet and the supernatant prepared for scintillation counting and the accumulation ratio [compound 1/mg protein)/(compound 1/μl)]calculated.
Human osteosarcoma 143B cells were incubated in 1 ml HEPES-buffered DMEM with 1-50 μM compound 1 supplemented with 6–60 nCi/ml [^3H] compound 1. To determine the energistration-dependent uptake, parallel incubations with 12.5 μM oligomycin, 20 μM FCCP; 10 μM myxathiazol. 100 nM valinomycin and 1 mM ouabain were carried out. At the end of the incubation, cells were pelleted by centrifugation and prepared for scintillation counting and the energisation-sensitive uptake determined.

rat liver mitochondria [6] = assay: Protection of mitochondrial function (membrane potential) from iron/ascorbate oxidative damage; format: biochemical; conditions: 5 μM, compared with Vitamin E
Experimental: Energised rat liver mitochondria were incubated with iron/ascorbate with no additions (stippled bars), 5 μM compound 1 (filled bars), 5 μM α-tocopherol. (open bars) or 5 μM TPMP (cross hatched bars), and then isolated and the membrane potential generated by respiratory substrates measured relative to control incubations in the absence of iron/ascorbate. Rat liver mitochondria were incubated at 25° C. in a shaking water bath in 2 ml medium containing 100 mM KCl, 10 mM Tris, pH 7.7, supplemented with rotenone (1.33 μg/ml), 10 mM succinate, 500 μM ascorbate and other additions. […] TPMP either 10 mM glutamate and malate, 10 mM succinate and rotenone, or 5 mM ascorbate/100 μM TMPD with rotenone and myxothiazol (2 μg/ml), incubated at 25° C. for 3 min then pelleted and the membrane potential determined as above and compared with an incubation that had not been exposed to oxidative stress.

143B cells [7] = assay: Cell viability by lactate dehydrogenase release; format: cell-based, human; conditions: 24 h, LDH release, concentrations giving 2–4 mM intramitochondrial
Experimental: as §2
Here, confluent 143B cells in 24 well tissue culture dishes were incubated with various concentrations of compound 1 for 24 h and cell viability measured by lactate dehydrogenase release.

Octanol:PBS partition coefficient [1]: 7.37 ± 1.56
IC50 (rat brain homogenates): 210 nM
effect of uncoupler FCCP on accumulation into mitochondria (rat liver mitochondria [4]; addition of FCCP): blocked
accumulation ratio into mitochondria (rat liver mitochondria [4]; energised rat liver mitochondria, membrane potential about 180 mV): about 6,000
proportion membrane-bound within mitochondria (rat liver mitochondria [4]; inferred from uptake of TPMP and compound 1 at the same membrane potential): about 84%
intramitochondrial concentration (rat liver mitochondria [4]; isolated mitochondria, range of concentrations of compound 1 (FIG. 2)): 4 to 8 mM
slope of accumulation ratio of compound 1 relative to that of TPMP (rat liver mitochondria [4]; range of membrane potentials, 10 μM compound 1, 1 μM TPMP, 3 min): 2.472
intra mitochondrial concentration from energisation-sensitive uptake (143B cells [5]; 143B cells, 1 h incubation): 2 to 4 mM
accumulation by cells containing defective mitochondria (143B cells [5]; cells without mitochondrial membrane potential): not accumulated
accumulation by intact cells (143B cells [5]; intact 143B cells): rapidly accumulated
SMILES: Cc1c(C)c2c(c(C)c1O)CCC(C)(CC[P+](c1ccccc1)(c1ccccc1)c1ccccc1)O2 (centres unmarked) [compound 1]
protection of mitochondria against oxidative damage (lipid peroxidation and protein carbonyl formation) (rat liver mitochondria [2]; mitochondria exposed to oxidative stress): protected them against oxidative damage
antioxidant protection with uncoupler FCCP (rat liver mitochondria [2]; mitochondria incubated with FCCP to prevent uptake): prevented
damage to mitochondria (rat liver mitochondria [3]): not damaging to mitochondria
time for reversal of accumulation by FCCP (rat liver mitochondria [4]; FCCP added after accumulation): < 10 s
time for uptake into mitochondria (rat liver mitochondria [4]; energised rat liver mitochondria): < 10 s
protection of mitochondrial function (ability to generate a membrane potential) (rat liver mitochondria [6]): far more effectively than Vitamin E itself
toxicity to cells (143B cells [7]): not toxic to cells
